Columns and labels:
[1] = target: Human neutrophil collagenase (HNC) (Homo sapiens, UniProt P22894); experiment: Human Neutrophil Collagenase Assay; format: biochemical; settings: fluorogenic peptide substrate, 96-well plate in duplicate; reference inhibitor
Method: Human neutrophil collagenase (HNC) activity is determined by using fluorogenic peptide substrate Dnp-Pro-b-Cyclohexyl-Ala-Gly-Cys(Me)-His-Ala-Lys-(N-methylanthranilic acid)-NH2. The N-terminus Dnp group and the C-terminus N-methyl-anthranilyl moiety (Nma) are fluorescence self-quenching until the peptide is cleaved at the Gly-Cys(me) bond. The fluorescence from the cleavage products is measured on a Bio-Tek Instrument FL500 fluorescence micro-plate reader (excitation at 360 nm, emission at 460 nm).

[2] = target: Human fibroblast stromelysin (HFS) (Homo sapiens, UniProt P08254); experiment: biochemical
Chain of Human fibroblast stromelysin (HFS) (P08254 100-477): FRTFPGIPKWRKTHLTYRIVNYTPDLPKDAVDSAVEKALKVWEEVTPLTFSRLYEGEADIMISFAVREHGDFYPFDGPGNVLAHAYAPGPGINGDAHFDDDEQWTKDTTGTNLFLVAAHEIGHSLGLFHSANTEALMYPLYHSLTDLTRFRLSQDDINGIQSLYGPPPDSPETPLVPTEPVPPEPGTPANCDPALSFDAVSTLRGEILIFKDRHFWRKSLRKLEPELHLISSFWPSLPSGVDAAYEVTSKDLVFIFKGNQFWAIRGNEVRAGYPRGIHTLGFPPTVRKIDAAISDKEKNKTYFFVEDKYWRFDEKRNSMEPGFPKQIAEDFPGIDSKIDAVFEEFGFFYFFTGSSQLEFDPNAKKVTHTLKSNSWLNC
Method: Human Fibroblast Stromelysin Assay
Human fibroblast stromelysin (HFS) activity is determined by using fluorogenic peptide substrate Dnp-Pro-b-Cyclohexyl-Ala-Gly-Cys(Me)-His-Ala-Lys-(N-methylanthranilic acid)-NH2. The N-terminus Dnp group and the C-terminus N-methyl-anthranilyl moiety (Nma) are fluorescence self-quenching until the peptide is cleaved at the Gly-Cys(me) bond. The fluorescence from the cleavage products is measured on a Bio-Tek Instrument FL500 fluorescence micro-plate reader (excitation at 360 nm, emission at 460 nm).

Chain of Human neutrophil collagenase (HNC) (P22894 101-467): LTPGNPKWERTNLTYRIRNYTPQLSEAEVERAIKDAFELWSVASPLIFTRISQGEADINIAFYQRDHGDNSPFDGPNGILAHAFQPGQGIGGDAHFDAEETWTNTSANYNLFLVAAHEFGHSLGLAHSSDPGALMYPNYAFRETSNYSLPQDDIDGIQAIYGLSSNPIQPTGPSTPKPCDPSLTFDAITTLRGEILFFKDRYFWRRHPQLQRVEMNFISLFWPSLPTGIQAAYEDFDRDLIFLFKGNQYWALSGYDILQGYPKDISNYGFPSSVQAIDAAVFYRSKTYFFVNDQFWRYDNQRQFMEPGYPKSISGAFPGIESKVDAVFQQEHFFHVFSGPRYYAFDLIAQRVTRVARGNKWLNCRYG

Compound: CCCCC[C@H](CC(=O)NO)C(=O)N[C@H](C(=O)N1CCC[C@H]1CO)C(C)C [Actinonin]
- Ki [1]: 722 nM
- Ki [2]: 722 nM

From patent publication US7022690B2, “Carboxylic acid substituted heterocycles, derivatives thereof and methods of use” (Amgen Inc., priority 1997, dated 2006)
